Source: patent US20090099217A1, “2-Aminopyrimidin-4-Ones And Their Use For Treating Or Preventing Alpha Beta-Related Pathologies” (ASTEX THERAPEUTICS LTD., priority 2006, published 2009)
Counter-ions that a name gives are not always drawn.

Target: T1, human β-Secretase (Homo sapiens, UniProt P56817)
T1 construct: The soluble part of the human β-Secretase (AA 1-AA 460) was cloned; Fc domain of IgG1 (C); made in house
Test: TR-FRET Assay
Assay type: biochemical
Conditions: sBACE-Fc enzyme 0.3 nM; substrate (Europium)CEVNLDAEFK(Qsy7) 100 nM; pH 4.5
Procedure: The enzyme used in the IGEN Cleavage-, Fluorescent-, TR-FRET- and the BiaCore assay is described as follows:
The soluble part of the human β-Secretase (AA 1-AA 460) was cloned into the ASP2-Fc10-1-IRES-GFP-neoK mammalian expression vector. The gene was fused to the Fc domain of IgG1 (affinity tag) and stably cloned into HEK 293 cells. Purified sBACE-Fc is stored in Tris buffer, pH 9.2 and has a purity of 95%.
Dilute the enzyme (truncated form) to 6 μg/mL (stock 1.3 mg/mL) and the substrate (Europium)CEVNLDAEFK(Qsy7) to 200 nM (stock 60 μM) in reaction buffer (NaAcetate, chaps, triton x-100, EDTA pH4.5). The Biomek FX is used for all liquid handling and the enzyme and substrate solutions are kept on ice until they are placed in Biomek FX. Enzyme (9 μl) is added to the plate then 1 μl of compound in dimethylsulphoxide is added, mixed and pre-incubated for 10 minutes. Substrate (10 μl) is then added, mixed and the reaction proceeds in the dark for 15 minutes at room temperature. The reaction is stopped with the addition of Stop solution (7 μl, NaAcetate pH 9). The fluorescence of the product is measured on a Victor II plate reader with an excitation wavelength of 340 nm and an emission wavelength of 615 nm. The assay is done in a Costar 384 well round bottom, low volume, non-binding surface (Corning #3676). […]

T1 sequence (P56817 22-460): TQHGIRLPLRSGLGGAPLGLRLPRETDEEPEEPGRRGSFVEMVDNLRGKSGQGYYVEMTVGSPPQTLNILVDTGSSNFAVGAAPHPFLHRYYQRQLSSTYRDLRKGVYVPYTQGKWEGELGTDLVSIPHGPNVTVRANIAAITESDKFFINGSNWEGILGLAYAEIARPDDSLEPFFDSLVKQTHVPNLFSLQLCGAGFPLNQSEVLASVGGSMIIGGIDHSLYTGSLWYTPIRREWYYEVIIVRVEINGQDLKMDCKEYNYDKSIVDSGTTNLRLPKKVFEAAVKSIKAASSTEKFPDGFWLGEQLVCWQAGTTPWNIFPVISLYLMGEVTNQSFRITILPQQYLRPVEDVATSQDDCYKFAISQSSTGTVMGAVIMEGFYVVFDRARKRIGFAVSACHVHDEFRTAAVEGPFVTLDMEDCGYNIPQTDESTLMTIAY

| IC50 | SMILES |
| --- | --- |
| 114 nM | CN1C(=O)CC(C)(CCc2cccc(-c3ccnc(Cl)c3)c2)N=C1N (centres unmarked) [Example 20, 2-Amino-6-{2-[3-(2-chloropyridin-4-yl)phenyl]ethyl}-3,6-dimethyl-5,6-dihydropyrimidin-4(3H)-one hydrochloride] |
| 316 nM | COc1cncc(-c2cccc(C3(C)CC(=O)N(C)C(N)=N3)c2)c1 (centres unmarked) [Example 21, 2-Amino-6-[3-(5-methoxypyridin-3-yl)phenyl]-3,6-dimethyl-5,6-dihydropyrimidin-4(3H)-one hydrochloride] |
